In publication PMC12081497, “Design, synthesis, and anti-breast cancer activity evaluation of novel 3-cyanopyridine derivatives as PIM-1 inhibitors” (Molecular Diversity, 2024):
Entries after “also recorded” stand apart in the source; their conditions may differ. Where two headings read alike, the source gives them in different places.

What was measured:
[1] = tested on: MCF-7 human cancer cell line; test: In vitro anti-proliferative MTT assay; format: cell-based; conditions: MTT, MCF-7, 48 h treatment, read-out: Cytotoxicity IC50, SD (±), MCF7
Method: In the present study, all synthesized cyanopyridine hybrids were subjected to in vitro cytotoxicity testing using the MTT assay method against MCF-7 human cancer.
All cell lines were maintained in RPMI1640 medium containing 10% FBS at 37 °C in 5% CO2 humidified incubator. Cell proliferation assay was determined by the MTT (3-[4,5-dimethyl-2-thiazolyl]-2,5- diphenyl-2H-tetrazolium bromide) method. Briefly, cells were plated in triplicate wells (3–5 × 10^4 cells/well) of 96-well flat-bottomed plates and incubated overnight prior to drug exposure and then treated with different concentrations of the tested compounds for 48 h. After that, 20 μL of MTT reagent at a final concentration of 0.5 mg/mL was added to each well. Cells were then incubated for 2 h with MTT, after which 100 μL of DMSO solution was added to dissolve the formazan salt resulting from the reduction of MTT and the absorbance was read at 570 nm using an automatic plate reader. The IC50 values were calculated according to inhibition ratios from three independent experiments.

[2] = tested on: MCF-7 cells; test: Apoptosis assay, Annexin V/PI flow cytometry; format: cell-based, human; conditions: MCF-7, 24 h
Method: Compound 7h was chosen to investigate its abilities in inducing cancer cell apoptosis. Cell cycle analysis of MCF-7 after treatment with compound 7h. To corroborate the ability of the compound to induce apoptosis, cells were stained with Annexin V/PI, incubated for 24 h, and analyzed.
The MCF-7 was treated with compound 7h for 24 h. After treatment, the cells were suspended in 0.5 mL of PBS, collected by centrifugation, and fixed in ice-cold 70% (v/ v) ethanol, centrifuged the ethanol-suspended cells for 5 min, suspended in 5 mL PBS and centrifuged for 5 min, re-suspended with 1 mL PI staining solution (0.1 mg/ml RNase) + PE Annexin V (component no. 51-65875X) and kept in dark at 37 °C for 10 min, finally analyzed by flow cytometry using FACS caliber (Becton Dickinson). The cell cycle distributions were calculated using Phoenix Flow Systems and Verity Software House.

[3] = biological target: T1, PIM-1 kinase (Homo sapiens, UniProt P11309); test: PIM-1 kinase inhibition assay (Promega PIM-1 kinase assay kit, ADP-Glo); format: biochemical; conditions: concentrations 10, 1, 0.1 and 0.01 µM, read-out: PIM1-Kinase IC50
T1 construct: purchased Promega V4032
T1 sequence (P11309 whole entry): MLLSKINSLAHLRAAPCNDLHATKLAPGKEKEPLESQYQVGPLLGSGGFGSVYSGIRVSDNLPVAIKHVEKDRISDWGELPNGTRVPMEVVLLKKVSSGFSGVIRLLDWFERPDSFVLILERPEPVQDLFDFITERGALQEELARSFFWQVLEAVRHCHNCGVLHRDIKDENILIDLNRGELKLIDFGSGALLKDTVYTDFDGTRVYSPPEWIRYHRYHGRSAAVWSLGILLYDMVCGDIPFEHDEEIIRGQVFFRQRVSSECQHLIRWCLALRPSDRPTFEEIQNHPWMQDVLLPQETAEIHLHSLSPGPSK

[4] = tested on: MCF-7 cells; test: Flow cytometric cell cycle analysis; format: cell-based, human; conditions: for Cell cycle comment (phase of arrest): MCF-7, 24 h
Method: The cell cycle encompasses four distinct phases: G1 phase, S phase (synthesis), G2 phase, and M phase. During G1, cellular amplification and preparation for DNA replication take place. The S phase involves DNA replication and chromatid duplication. In the G2 phase, DNA repair and further growth occur. The M phase is characterized by nuclear division. The investigation of the impact of compound 7h on cell cycle progression and the induction of apoptosis in MCF-7 cells. […] Subsequently, the cells were stained with PI/Annexin V and analyzed using flow cytometry (BD FASCCalibur). Upon analyzing the results (Table 3, Fig. 6), it was evident that the percentage of cell accumulation in the S phase increased in MCF-7 cells treated with compound 7h after 24 h of incubation.
Cell cycle analysis MCF-7 cell was seeded into six-well plates at a density of 2 × 10^5 cell per well and incubated for 24 h. The cell was cultured in RPMI 1640 supplemented with fetal bovine serum (FBS, 10%) and incubated at 37 °C and 5% CO2. The medium was removed and replaced with medium (final DMSO concentration, 1% v/v) containing compound 7h (0.283 µM). After incubation for 24 h and 48 h, the cell layer was trypsinized and washed with cold phosphate buffered saline (PBS) and fixed with 70% ethanol. The fixed cells were rinsed with PBS and then stained with the DNA fluorochrome PI in a solution containing Triton X-100 as well as RNase, keep 15 min at 37 °C according to the instruction manual. Then the samples were analyzed with a FACS Caliber flow cytometer (Becton Dickinson & Co., Franklin Lakes, NJ). The number of cells analyzed for each sample was 10,000 [39].

Compound: COc1cc(-c2cc(-c3cccnc3)[nH]c(=O)c2C#N)ccc1OCC(=O)Nc1ccccc1 [7h, 2-(4-(3-Cyano-2-oxo-6-(pyridin-3-yl)-1,2-dihydropyridin-4-yl)-2-methoxyphenoxy)-N-phenylacetamide]
- IC50 ([1]; Homo sapiens, MCF7, 48 h): 1890 nM
- IC50 [1]: 1890 ± 80 nM
- Apoptosis Late ([2]; control 0.27): 22.81%
- Apoptosis Early ([2]; control 0.41): 15.42%
- Necrosis ([2]; control 1.61): 3.95%
- Apoptosis Total ([2]; control 2.29): 42.18%
- IC50 [3]: 281 ± 12 nM
- Cell cycle comment (phase of arrest) [4]: arrested the tumor cells at the S phase; also recorded: cell cycle arrest at the S phase
- Cell cycle comment (phase of arrest) ([4]; listed as 7 h): Cell growth arrest@ S
- DNA content %G2/M ([4]; MCF-7, IC50 concentration of 7h, 24 h, control 13.14): 12.11%
- DNA content %S ([4]; MCF-7, IC50 concentration of 7h, 24 h, control 25.83): 33.61%
- DNA content %G0-G1 ([4]; MCF-7, IC50 concentration of 7h, 24 h, control 61.03): 54.28%
- melting point: 295 to 297 °C
